Data as given in patent US20240009276A1, “S[…] OF IMMUNITY AGAINST RNA VIRUSES” (Health Research, Inc., priority 2020, published 2024).

Columns and labels:
[1] = system: Human epithelial cells (SW620); format: cell-based; set-up: key to synergy of combination with Poly-IC / synergy of combination with rintatolimod / synergy of combination with TNFα: Yes*: *Direct support by current data (Rintatolimod and poly-IC share binding to TLR3 but not other immunostimulatory properties/recognition receptors/signaling pathways^3)
SARS-CoV = conditions: mouse, in vivo; cited from earlier work
[2] = cited from earlier work
human coronavirus OC43 = conditions: human coronavirus OC43, BS-C-1 kidney cells; cited from earlier work

Substance | induction of genes involved in SARS-Cov elimination (OAS2, Ifit-1, Mx1, RIG-I, MDA5, TLR3, other ISGs) [1] | synergy of combination with Poly-IC [1] | synergy of combination with TNFα [1] | synergy of combination with rintatolimod [1] | antiviral/survival effect (SARS-CoV) | easily achievable concentration in humans [2] [µg/mL] | EC50 (human coronavirus OC43) [µg/mL]
polyinosinic:polycytidylic acid [poly-I:C, reference compound] | synergistic effects | – | – | – | – | – | –
IFNα | – | Yes* | Yes* | Yes* | significant antiviral/survival effect | – | –
rintatolimod [reference compound] | synergistic effects | – | – | – | significant antiviral/survival effect | 40 | 0.4
IFNγ | – | Yes* | Yes* | Yes* | – | – | –
